The values below come from US5256690A, “Method for treating and controlling the symptoms of neurodegenerative disease and neuropsychopharmacological disorders” (Carter-Wallace, Inc., priority 1992, dated 1993).

For series [1], the target named is T1, strychnine-insensitive glycine receptors (Rattus norvegicus, UniProt P35439).
T1 construct: Brains are immediately removed and forebrains dissected; from tissue; host or cells: rat forebrain membranes (P2/P3 pellet, washed, frozen), male Sprague-Dawley
Conditions: value used in the K calculation; read-out: dissociation constant KD of [3H]5,7DCKA; cited from earlier work.

The target of series [2] is T1, strychnine-insensitive glycine receptors. Nature of the series: biochemical. Type of series: binding. The method, then: Male Sprague-Dawley rats weighing 150-200 g are housed under a 12-hour light/dark cycle with access to food and water ad libitum. Animals are anesthetized with CO2 and sacrificed by decapitation. Brains are immediately removed and forebrains dissected, weighed and placed in 10 volumes (original wet weight volume) of 5 mM Hepes/4.5 mM Tris buffer (HTS; pH 7.8) containing 0.32 M sucrose. Tissue preparation is performed at about 4° C unless otherwise stated. Tissues are homogenized using a Brinkmann Polytron (setting 6, 30 seconds), diluted to 50 volumes in HTS-sucrose, and centrifuged at 1,000 xg for 10 minutes. The resultant pellet (P1) is discarded and supernatant centrifuged at 20,000 xg for 20 minutes. The resultant pellet (P2) is resuspended in HTS and centrifuged at 8,000 xg for 20 minutes. The supernatant and outer buffy coat (remaining pellet core discarded) is centrifuged at 20,000 xg for 20 minutes. The resultant pellet (P2/P3) is resuspended in HTS containing 1 mM EDTA and centrifuged at 20,000 xg for 20 minutes. The P2/P3 pellet is resuspended in HTS and the "washing" procedure is repeated two more times. The P2/P3 pellet is then resuspended in 5 volumes of HTS, frozen on dry-ice and stored at -80° C. for at least 72 hours prior to binding assay.
At the time of the assay, the appropriate amount of tissue is thawed and resuspended in 50 mM Hepes-KOH buffer (pH 8.0 at 4° C.) and "washed" twice by resuspension and centrifugation at 20,000 xg for 20 minutes. The binding of [^3 H]5,7DCKA is performed as described by Baron et al. Env. J. Pharmacol 206: 149-154 (1991). Assays are performed at 4° C. using quadruplicate samples in a total volume/tube of 1-ml consisting of: 500 ul membrane suspension (200-300 ug protein/assay tube) in 50 mM Hepes-KOH buffer (pH 8.0 at 4° C.), 100 ul [^3 H]5,7DCKA solution (19-21 nM; specific activity 18.2 Ci/mmol), 100 ul drug or buffer, and 300 ul buffer. […] Felbamate, solutions of 10 mM and 100 mM, are dissolved in 40-50% and 100% DMSO, respectively, and serial dilutions are performed. Binding reactions are initiated by adding the tissue homogenate and terminated after a 15 minute incubation period by rapid filtration through Brandel GF/B filters using a Brandel M-24 cell harvester. This filtration is followed by two 5-ml rinses with ice-cold buffer. Radioactivity is monitored in a Beckman LS 5801 liquid scintillation counter.
Displacement curves and IC50 values were analyzed using Graphpad (ISI Software, Philadelphia, Pa.).

Series [3] is described as follows: Preclinical margin of safety (protective index). Type of series: in vivo. Particulars: preclinical profile.
Another series has as its system metrazol. Particulars: rats; cited from earlier work.
For a further series, the system named is MES. Particulars: rats; cited from earlier work.
For another series, the system named is hippocampal slices. Nature of the series: Hippocampal slice hypoxia model (evoked potential recovery). Conditions: for evoked potential (population spike) recovery: after one hour recovery. The series is classed as cell-based, rat. On the procedure:
Sprague-Dawley rats are briefly anesthetized with Halothane and then decapitated. The brain is removed and the hippocampus dissected. Transverse hippocampal brain slices of 475 microns are sectioned with a McIlwain tissue chopper. Slices are then incubated in a temperature controlled chamber of 34 degrees centigrade while being perfused with an artificial cerebral spinal fluid (NaCl 126 mM; KCl, 4; KH2 PO4, 1.4; MgSO4, 1.3; CaCl2, 2.4; NaHCO3, 26 and glucose, 4) saturated with 95% O2 and 5% CO2.
After an initial one hour equilibration period, the slices are tested for electrophysiological function. Electrical stimulation is given in the region of the CA3 collaterals with a bipolar twisted wire electrode. Evoked responses are recorded extracellularly in the pyramidal cell layer of the CA1 region. Stimulation is given for a duration of 40 microseconds in square wave pulses. The peak-to-peak amplitude of the resultant evoked potential response is then monitored.
Hippocampal slices from one animal are placed in two chambers. One chamber is used as a control and receives standard artificial cerebral spinal fluid (ACSF) while the second receives felbamate. In each chamber, one slice is stimulated every 30 seconds to monitor evoked potential response. Other slices in the chamber are not continuously stimulated. In these latter slices, designated as non-stimulated, the evoked potential response is assessed only at the beginning and end of the experiment. Only slices with initial evoked potentials of 3 mV or greater amplitude are included for testing.
The experimental chamber is perfused with oxygenated artificial cerebral spinal fluid (ACSF) containing felbamate for 30 minutes before the initiation of hypoxic conditions. The control chamber continues to receive oxygenated ACSF without felbamate during this period. Hypoxic conditions are then initiated simultaneously in both chambers by changing to perfusing media saturated with 95% N2 and 5% CO2. The experimental chamber receives nitrogenated ACSF with felbamate while the control chamber receives nitrogenated ACSF without felbamate.
The duration of hypoxic exposure for both chambers is determined by the disappearance of the hypoxic injury potential (HIP) in the control stimulated slice. This potential appears during hypoxia after the disappearance of the original evoked potential. Although hippocampal slices can vary in their temporal response to hypoxia, the HIP is a reliable marker of permanent hypoxic injury. For this reason, the disappearance of the HIP is chosen to determine length of hypoxic exposure. Hypoxia is continued in both chambers for 5 minutes beyond the disappearance of the HIP in the stimulated control slice.
After hypoxic exposure, slices are monitored through one hour of recovery with oxygenated ACSF. The felbamate chamber receives oxygenated ACSF with felbamate for the first 15 minutes of this recovery and then standard oxygenated ACSF for the remaining 45 minutes of recovery. After a one-hour recovery period, the percentage of evoked potential amplitude recovery is assessed in both stimulated and non-stimulated slices. This percentage is calculated as the evoked potential amplitude after recovery divided by the evoked potential amplitude prior to hypoxic exposure.
This protective action is assessed by several measures. First, evoked potential recovery is assessed in both stimulated and non-stimulated slices. Additionally, hypoxic protection is calculated for both stimulated and non-stimulated slices. This measure is calculated as the damage seen in control slices minus the damage seen in experimental (felbamate) slices divided by the damage seen in control slices. For these purposes damage is defined as 100 percent minus percent recovery. The determination of hypoxic protection helps take into account any survival seen in control slices. Lastly, counts of total surviving slices were made. […]

In the case of `O=C(O)c1cc(O)c2c(Cl)cc(Cl)cc2n1` [[^3 H]5,7DCKA, [^3 H]5,7-dichlorokynurenic acid], the Kd in series [1] was 0.069 µM.
For `NC(=O)OCC(COC(N)=O)c1ccccc1` [felbamate, 2-phenyl-1,3-propanediol dicarbamate], the IC50 in series [2] (IC50, inhibition of [3H]5,7DCKA, 10 uM-10 mM, combined data of three experiments on a single graph, FIG. 2) is 374 µM; in series [2] (IC50 value (mean +/- SEM), mean of the felbamate displacement experiments), 477 ± 49 µM. The Ki in series [2] (K estimate for inhibition of [3H]5,7DCKA (mean +/- SEM), calculated, mean of experiments, FIG. 2) is 368 ± 37 µM; in series [2] (K estimate for inhibition of [3H]5,7DCKA, calculated from IC50 of combined data) it was 289 µM. In addition, the Hill slope in series [2] (combined displacement data, FIG. 2) is -0.93. In addition, the “mode of inhibition of [3H]5,7DCKA binding” value in series [2] (rat forebrain membranes, FIG. 2) is reported as “competitively inhibits”. Moreover, the protective index in series [3] is recorded as 16.9-19.1. The “anticonvulsant ED50 for metrazol” value in the series with metrazol is listed as 238 mg/kg. In addition, the “anticonvulsant ED50 for MES” value in the series on MES is listed as 46 mg/kg. Also, in the series on hippocampal slices (380 uM, 840 uM, 1,300 uM and 1,700 uM), the neuroprotection against hypoxia result is recorded as “Significant neuroprotection”. The “counts of surviving stimulated slices” value with hippocampal slices (1,300 and 1,700 uM, survival criterion 3 mV) is listed as “substantial felbamate protection”. The “toxicity for electrophysiological function” value in the series on hippocampal slices (high concentration of felbamate) is “no evidence of toxicity”. Also, the “toxicity (permanent evoked potential loss)” value in the series on hippocampal slices (pre-hypoxic incubation, felbamate perfusion) is listed as “no evidence of toxicity”. Moreover, the “evoked potential (population spike) recovery” value with hippocampal slices (stimulated slices, 4 uM) was 2%; in the series on hippocampal slices (stimulated slices, 190 uM), 6%; in the series on hippocampal slices (stimulated slices, 380 uM) it was 13%; with hippocampal slices (stimulated slices, 840 uM), 46%; in the series with hippocampal slices (stimulated slices, 1,300 uM), 95%; in the series on hippocampal slices (stimulated slices, 1,700 uM), 96%. The “delay of appearance of the hypoxic injury potential (HIP)” value in the series with hippocampal slices (stimulated slices, 1,700 uM) was 14.5 min. Besides, in the series with hippocampal slices (stimulated slices, 1,700 uM, hypoxia), the “effect on disappearance of the evoked potential” value is “did not affect”. In the series with hippocampal slices (survival criterion 3 mV), the “counts of surviving non-stimulated slices” value is recorded as “substantial protection”.
